Results as given in PubChem BioAssay AID1053137 (Broad Institute, 2014).

What was measured:
[1] = test system: HepG2 PCSK9 mRNA, qRT-PCR, overnight; test: PCSK9 mRNA reduction in HepG2 cells, late-stage follow-up, mechanism study for TRIB1 upregulator project, cell-based, RT-qPCR, cherry-pick (AID 1053137)
[2] = as above; conditions: HepG2 PCSK9 mRNA, qRT-PCR, overnight; measured here: maximal PCSK9 expression inhibition; stronger effect = higher value

Question: What does the source list for `CN1C(=O)c2cc(NC(=O)c3ccc(C(F)(F)F)cc3)ccc2OC[C@@H]2O[C@H](CC(=O)NC3Cc4ccccc4C3)CC[C@@H]21`?
Answer: AC50 [1]: 110 nM; inhibition [2]: 85%

Question: Which results are given for `CN1C(=O)c2cc(NC(=O)c3ccc(C(F)(F)F)cc3)ccc2OC[C@@H]2O[C@@H](CC(=O)NC3Cc4ccccc4C3)CC[C@@H]21`?
Answer: AC50 [1]: 870 nM; inhibition [2]: 87%
